Tested on: T cell clones that are not CD1d-restricted
Assay: Flow cytometric staining with lipid treated multimerized CD1d-Fc aggregates
Assay type: cell-based, human
Conditions: flow cytometry; 4 T cell clones that are not CD1d-restricted
Procedure: To facilitate binding to CD1 specific T cells for detection by flow cytometry, a highly multimerized form of the CD1d fusion protein was formed using fluorescently labeled protein A molecules. Protein A molecules spontaneously associate in solution at neutral pH with immunoglobulin Fc regions, forming complexes containing four Fc molecules and two protein A molecules (4+2 complexes, reference 2). The human CD1d-Fc fusion protein was incubated with Alexa 488 dye labeled protein A, and the 4+2 complexes purified by size exclusion chromatography on a Pharmacia Superose 6 column using PBS pH 7.2 as a running buffer. The purified 4+2 aggregates were concentrated to 100 μg/ml with ovalbumin as a carrier protein. The CD1d-Fc aggregate was then pre-incubated for 24 to 48 hours at 37° C. with antigenic glycolipids dissolved in DMSO at a 40:1 molar ratio of lipid to fusion protein, or with an equivalent volume of DMSO alone as a negative control. The T cell staining was performed at room temperature or 4° C. for 20 min, at a concentration of 40 μg/ml of the lipid or control treated CD1d-Fc aggregate.
To facilitate binding to CD1 specific T cells for detection by flow cytometry, a highly multimerized form of the CD1d fusion protein is formed using fluorescently labeled protein A molecules. […]

CCCCCCCCCCCCCCCCCCCCCCCCCC(=O)N[C@@H](CO[C@H]1O[C@H](CO)[C@H](O)[C@H](O)[C@H]1O)[C@H](O)[C@H](O)CCCCCCCCCCCCCC [α-GalCer, α-galactosylceramide]
staining of non-CD1d-restricted T cell clones by lipid treated CD1d fusion protein: no staining

— US20020071842A1, “Soluble CD1 compositions and uses thereof” (priority 2000, published 2002)
